ChEMBL document CHEMBL1201862, “PubChem BioAssay data set” (2004)
Calls of active or inactive are those of the source.

Assays:
Streptococcus = experiment: GAS UMAA2166 growth inhibition – luminescence, BacTiterGlo, counter-screen for streptokinase expression inhibitor project, dose response (AID 1915); type: functional, organism-based;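 further: potency for reduction of bacterial viability or growth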
[1] = tested on: Streptococcus sp. 'group A'; experiment: Streptococcus pyogenes SK(-)GAS viability under kanamycin – luminescence, BacTiterGlo, confirmation, counter-screen for streptokinase expression inhibitor project, dose response (AID 1900); type: functional, organism-based
[2] = Trypanosoma cruzi growth suppression in host cells – NIH3T3 host cells, beta-gal luminescence, confirmation (AID 2044); type: functional, cell-based;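 further: intracellular parasites grown in NIH/3T3 mouse fibroblasts as host cells; luminescent beta-galactosidase reporter signal from transgenic T. cruzi replicating inside host cells; inhibitors lower the luminescence signal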
[3] = NIH3T3 cell viability loss – ATP luminescence, mouse fibroblasts, counter-screen, dose response (AID 2010); type: functional, cell-based;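 further: cells exposed to compound for about 90 hours before reading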
[4] = biological target: T1, Corticotropin-releasing factor receptor 2/Corticotropin-releasing factor-binding protein (Homo sapiens, UniProt P24387+Q13324); experiment: activators of CRF receptor 2 with binding protein – uHTS hits, confirmation (AID 602473); type: functional; settings: read-out: EC50_Mean
T1 sequence (Q13324 whole entry): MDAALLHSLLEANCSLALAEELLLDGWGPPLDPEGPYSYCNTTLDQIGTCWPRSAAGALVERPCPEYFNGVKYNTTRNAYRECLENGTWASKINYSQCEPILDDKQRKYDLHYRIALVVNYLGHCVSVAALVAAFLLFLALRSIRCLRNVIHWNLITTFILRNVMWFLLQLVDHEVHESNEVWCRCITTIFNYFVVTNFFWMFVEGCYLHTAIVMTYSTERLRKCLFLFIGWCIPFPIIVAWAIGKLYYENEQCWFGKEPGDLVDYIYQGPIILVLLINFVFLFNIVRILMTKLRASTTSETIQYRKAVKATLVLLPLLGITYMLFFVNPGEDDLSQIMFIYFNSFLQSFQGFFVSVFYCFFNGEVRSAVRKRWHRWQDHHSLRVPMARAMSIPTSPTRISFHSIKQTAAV
T1 sequence (P24387 whole entry): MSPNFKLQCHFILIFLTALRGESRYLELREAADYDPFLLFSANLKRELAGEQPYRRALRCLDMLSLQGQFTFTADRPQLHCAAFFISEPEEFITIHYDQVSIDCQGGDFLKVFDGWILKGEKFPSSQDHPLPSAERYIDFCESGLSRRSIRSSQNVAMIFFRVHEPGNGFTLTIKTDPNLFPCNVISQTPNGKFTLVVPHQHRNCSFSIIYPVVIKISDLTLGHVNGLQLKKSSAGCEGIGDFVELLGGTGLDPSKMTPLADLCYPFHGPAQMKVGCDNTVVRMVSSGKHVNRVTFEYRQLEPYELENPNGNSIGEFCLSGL

Streptokinase A = biological target: T2, Streptokinase A (Streptococcus pyogenes serotype M1, UniProt P10520); experiment: viability-normalized secreted streptokinase activity reduction – plasminogen activation absorbance, OD405, dose response (AID 1914); type: functional, Streptococcus pyogenes M1 GAS;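 further: secreted streptokinase activity via plasminogen activation per viability signal from cell pellet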
T2 sequence (P10520 whole entry): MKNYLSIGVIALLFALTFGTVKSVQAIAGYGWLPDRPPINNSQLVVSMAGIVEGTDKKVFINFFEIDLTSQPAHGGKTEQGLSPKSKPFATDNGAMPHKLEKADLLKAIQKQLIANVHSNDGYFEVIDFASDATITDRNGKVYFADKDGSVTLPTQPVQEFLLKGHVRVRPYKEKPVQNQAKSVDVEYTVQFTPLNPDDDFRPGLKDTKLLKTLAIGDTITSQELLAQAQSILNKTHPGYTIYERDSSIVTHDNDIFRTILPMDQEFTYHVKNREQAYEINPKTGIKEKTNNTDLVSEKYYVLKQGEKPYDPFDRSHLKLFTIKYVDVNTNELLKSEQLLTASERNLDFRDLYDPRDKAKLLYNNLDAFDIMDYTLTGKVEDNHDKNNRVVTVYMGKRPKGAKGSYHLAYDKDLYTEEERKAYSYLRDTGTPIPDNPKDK

[5] = Luminescence Cell-Based Dose Response HTS to Identify Inhibitors of 5'UTR Stem-Loop Driven Prion Protein mRNA Translation in H4 Neuroglioblastoma Cells. [Related pubchem assays: 1827 (Project Summary), 1813 (Primary HTS)]; type: functional
[6] = luciferase reporter signal suppression in cells – H4 neuroglioma cells, luminescence, dose response (AID 1990); type: functional, cell-based
[7] = alpha-synuclein stem-loop luciferase translation blockers – H4 neuroglioma cells, luminescence, confirmation (AID 1988); type: functional, cell-based
Cytochrome P450 2C19 = Cytochrome P450 2C19 (Homo sapiens, UniProt P33261); experiment: Cytochrome panel assay with activity outcomes. Panel member name: p450-cyp2c19 Compounds with AC50 equal or less than 10 uM are considered active; type: functional
Chain of Cytochrome P450 2C19 (P33261 whole entry): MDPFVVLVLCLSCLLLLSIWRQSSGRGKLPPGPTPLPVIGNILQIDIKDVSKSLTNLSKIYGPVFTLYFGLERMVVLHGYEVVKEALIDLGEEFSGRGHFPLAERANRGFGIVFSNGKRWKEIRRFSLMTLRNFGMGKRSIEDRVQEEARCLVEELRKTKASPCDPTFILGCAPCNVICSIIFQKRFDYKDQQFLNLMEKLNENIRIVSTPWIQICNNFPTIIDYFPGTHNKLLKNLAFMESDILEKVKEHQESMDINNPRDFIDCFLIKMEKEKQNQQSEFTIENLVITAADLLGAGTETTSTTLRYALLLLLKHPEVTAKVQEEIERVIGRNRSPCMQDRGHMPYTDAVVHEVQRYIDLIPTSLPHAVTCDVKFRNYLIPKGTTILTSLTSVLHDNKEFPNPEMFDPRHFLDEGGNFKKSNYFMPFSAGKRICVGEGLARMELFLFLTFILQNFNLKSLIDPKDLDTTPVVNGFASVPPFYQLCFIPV

Cc1ccc(Nc2nc3nonc3nc2O)cc1Cl
EC50 (Streptococcus): 20.6 µM (active)
EC50 [1]: 3.04 µM (active)

CCOC(=O)C1CCCN(Cc2ccc(OCc3ccccc3)cc2)C1 (configuration not stated)
EC50 [2]: 0.108 µM (active)
EC50 [3]: > 60 µM (not active)

CCN(CC)C(=O)Cn1c(=O)c2ccccc2n2c(=S)sc(-c3cccc(C)c3)c12
EC50 [4]: > 53 µM (inactive)

N#C/C(=C/c1ccc(N2CCCCCC2)o1)c1cccc(F)c1
EC50 [2]: 2.78 µM (active)
EC50 [3]: > 60 µM (not active)

CCCN(Cc1ccco1)S(=O)(=O)c1ccc(OC)c(OC)c1
EC50 (Streptococcus): > 150 µM (not active)
EC50 [1]: > 150 µM (not active)
EC50 (Streptokinase A): > 150 µM (not active)

CCN(CC(=O)Nc1sc2c(c1C#N)CCCC2)Cc1nc(O)c2ccccc2n1
EC50 [5]: > 120 µM (not active)
EC50 [6]: 22.4 µM (active)
EC50 [7]: > 120 µM (not active)

COc1ccc(NC(=O)c2ccc([N+](=O)[O-])s2)c([N+](=O)[O-])c1
EC50 [2]: 1.86 µM (active)
EC50 [3]: > 30 µM (not active)

Cn1nc([N+](=O)[O-])nc1Oc1ccccc1F
EC50 [2]: 0.551 µM (active)
EC50 [3]: > 60 µM (not active)

Cn1c(N)c(C(=O)COC(=O)CCc2c[nH]c3ccccc23)c(=O)n(C)c1=O
EC50 (Streptococcus): 79.6 µM (active)
EC50 [1]: 24.6 µM (active)
EC50 (Streptokinase A): > 150 µM (not active)

Cn1c(=O)n(C)c2cc(NS(=O)(=O)c3ccccc3[N+](=O)[O-])ccc21
EC50 (Streptococcus): > 150 µM (not active)
EC50 [1]: > 150 µM (not active)
EC50 (Streptokinase A): > 150 µM (not active)

O=C(CSc1nnc(-c2c[nH]c3ccccc23)o1)N(Cc1ccccc1)c1ccc(F)cc1
EC50 [2]: 1.58 µM (active)
EC50 [3]: > 60 µM (not active)

NNC(=O)CSc1nc(-c2ccccc2)nc2c1CCCC2
EC50 (Streptococcus): > 150 µM (not active)
EC50 [1]: > 150 µM (not active)
EC50 (Streptokinase A): > 150 µM (not active)

CN(C)c1ncc2nc(-c3ccccc3)c(=O)n(CCC#N)c2n1
AC50 (Cytochrome P450 2C19; read-out: AC50): 39.8 µM (inconclusive)

Cc1cccc(N=Nc2c(C)nn(-c3ccccc3)c2N)c1C
EC50 (Streptococcus): 15.8 µM (active)
EC50 [1]: 11.7 µM (active)
EC50 (Streptokinase A): 22 µM (active)

CCOC(=O)C1=NN(C(=O)c2ccc(OC)cc2)C(O)(c2ccc(Cl)cc2)C1 (configuration not stated)
EC50 (Streptococcus): 15.7 µM (active)
EC50 [1]: 7.85 µM (active)
EC50 (Streptokinase A): > 150 µM (not active)

Cc1ccc(Nc2nc3nonc3[nH]c2=O)cc1Cl
EC50 (Streptokinase A): 31.1 µM (active)

O=C(C[C@H]1C[C@H](C(=O)N2CCCCC2)[C@@]2(CCc3ccccc3)c3[nH]c4ccc(Cl)cc4c3CCN2C1=O)NCCN1CCOCC1
EC50 [4]: > 53 µM (inactive)

Cc1ccc(NC(=O)CN(C)Cc2nc(O)c3cc(Br)cc(Br)c3n2)cc1
EC50 (Streptococcus): 12.2 µM (active)
EC50 [1]: 5.34 µM (active)
EC50 (Streptokinase A): > 150 µM (not active)

CNc1nc2nc(O)c3c(c2s1)OC(N)=C(C#N)C3c1cccc(F)c1 (configuration not stated)
EC50 [4]: > 53 µM (inactive)

COc1cccc(N(C(=O)Cn2nnc(-c3cccs3)n2)C(C(=O)NC(C)C)c2ccc(C)o2)c1 (configuration not stated)
EC50 [5]: > 120 µM (not active)
EC50 [6]: 16.4 µM (active)
EC50 [7]: 18.8 µM (active)

CN1CCN(C(CNC(=O)c2ccc(Br)o2)c2ccc(F)cc2)CC1 (configuration not stated)
EC50 [2]: 0.865 µM (active)
EC50 [3]: > 60 µM (not active)

NS(=O)(=O)c1ccc(NC(S)=Nc2ccn(Cc3cccc4ccccc34)n2)cc1
EC50 [5]: > 120 µM (not active)
EC50 [6]: 15.6 µM (active)
EC50 [7]: > 120 µM (not active)

O=C(Cc1coc2cc3c(cc12)CCC3)OCC(=O)N1CCCC1=O
EC50 [5]: > 60 µM (not active)
EC50 [6]: > 60 µM (not active)
EC50 [7]: 30.1 µM (active)

Cc1c(C(=O)N2CCOCC2)c(S(=O)(=O)Nc2cccc(Br)c2)c(C)n1C
EC50 [5]: 32.2 µM (active)
EC50 [6]: > 120 µM (not active)
EC50 [7]: 15 µM (active)

CC(C)=CCC12Oc3cc(O)ccc3C1(O)Oc1cc(O)c([C@H]3C=C(C)CC(c4ccc(O)cc4O)[C@H]3C(=O)c3ccc(O)cc3O)c(O)c1C2=O (some centres not stated)
EC50 (Streptococcus): 1.64 µM (active)
EC50 [1]: 1.15 µM (active)

CSc1nnnc2ccccc12
AC50 (Cytochrome P450 2C19): inconclusive

O=C(COC(=O)CSc1cc(Cl)ccc1Cl)NCc1ccc2c(c1)OCO2
EC50 [4]: > 53 µM (inactive)

Cc1cc(C(=O)NCC23CC4CC(CC(C4)C2)C3)c(C)o1
EC50 [2]: 2.84 µM (active)
EC50 [3]: > 60 µM (not active)

COc1cc2ccccc2cc1C(=O)Nc1ccc(NC(=O)c2cccs2)cc1
EC50 (Streptococcus): 29.2 µM (active)
EC50 [1]: 11.5 µM (active)
EC50 (Streptokinase A): > 150 µM (not active)

CCOC(=O)C1CCCN(Cc2ccc(O)c(OC)c2)C1 (configuration not stated)
EC50 [2]: 0.183 µM (active)
EC50 [3]: > 60 µM (not active)

O=C(Nc1ccncc1)c1cccc(S(=O)(=O)N2CCN(c3ccc(F)cc3)CC2)c1
EC50 [2]: 1.14 µM (active)
EC50 [3]: > 30 µM (not active)

Cc1ccccc1OCCCc1c(C)n[nH]c1C
EC50 (Streptococcus): > 150 µM (not active)
EC50 [1]: 19.9 µM (active)
EC50 (Streptokinase A): > 150 µM (not active)

O=C(Nc1nnc(SCc2ccc(F)cc2)s1)c1ccc2c(c1)C(=O)N(c1ccccc1Cl)C2=O
EC50 (Streptococcus): 101 µM (active)
EC50 [1]: 24.3 µM (active)
EC50 (Streptokinase A): > 150 µM (not active)

O=C1S/C(=C\c2ccccc2)C(=O)N1CC(O)Cn1c2ccccc2c2ccccc21 (configuration not stated)
EC50 [2]: 2.64 µM (active)
EC50 [3]: 11.5 µM (active)

O=[N+]([O-])c1cccc(-c2ccc(/C=N/NC(=S)Nc3ccccc3)o2)c1
EC50 [2]: 1.99 µM (active)

Cc1cc(OCCOCCN2CCCC2)ccc1C(C)C
EC50 [2]: 0.816 µM (active)
EC50 [3]: 4.6 µM (active)

Cc1ccc(S(=O)(=O)N2CCCCC2)cc1NC(=O)Nc1ccc(Cl)cc1Cl
EC50 [2]: 1.06 µM (active)
EC50 [3]: > 60 µM (not active)

CN1CCN(C(=O)C(=O)c2cn(CC(=O)N3CCCC3)c3ccccc23)CC1
EC50 (Streptococcus): > 150 µM (not active)
EC50 [1]: > 150 µM (not active)
EC50 (Streptokinase A): > 150 µM (not active)

O=C(Cn1nnc(-c2ccccc2)n1)N/N=C/c1cc([N+](=O)[O-])ccc1O
EC50 (Streptococcus): 0.55 µM (active)
EC50 [1]: 0.421 µM (active)

Oc1ccc(/C=N/Nc2ccc3ccccc3c2)c(O)c1
EC50 (Streptococcus): 31.9 µM (active)
EC50 [1]: 6.27 µM (active)
EC50 (Streptokinase A): > 150 µM (not active)

Cc1ccc(C)c(NC(=O)c2cccc(Oc3ccc([N+](=O)[O-])cc3Cl)c2)c1
EC50 [2]: 1.45 µM (active)
EC50 [3]: > 30 µM (not active)

COc1ccc(Cc2noc(CN3CCN(C4CCc5ccccc5C4)CC3)n2)cc1OC (configuration not stated)
EC50 [2]: 1.23 µM (active)
EC50 [3]: > 60 µM (not active)

COc1ccc(-n2ncc3c2CC(C)(C)CC3NC(=O)c2ocnc2C)cc1 (configuration not stated)
EC50 [6]: > 120 µM (not active)
EC50 [7]: > 120 µM (not active)

COC(=O)c1ccc(OC)c(CN2CCCN(Cc3ccc(F)cc3)S2(=O)=O)c1
EC50 [2]: 1.75 µM (active)
EC50 [3]: > 30 µM (not active)

CCc1nnc(NC(=O)c2sc3nc4cc(C)ccc4cc3c2N)s1
EC50 (Streptococcus): 3.95 µM (active)
EC50 [1]: 6.73 µM (active)

CC(/C=C/C=C/c1ccccc1)=N/NC(=O)c1ccc2c(c1)OCCO2
EC50 (Streptococcus): > 150 µM (not active)
EC50 [1]: > 150 µM (not active)
EC50 (Streptokinase A): > 150 µM (not active)
